Entries after “also recorded” stand apart in the source; their conditions may differ.
Molecular target: T1, HNF-4α (Rattus norvegicus, UniProt P22449)
T1 sequence (P22449 1-464 isoform P22449-2): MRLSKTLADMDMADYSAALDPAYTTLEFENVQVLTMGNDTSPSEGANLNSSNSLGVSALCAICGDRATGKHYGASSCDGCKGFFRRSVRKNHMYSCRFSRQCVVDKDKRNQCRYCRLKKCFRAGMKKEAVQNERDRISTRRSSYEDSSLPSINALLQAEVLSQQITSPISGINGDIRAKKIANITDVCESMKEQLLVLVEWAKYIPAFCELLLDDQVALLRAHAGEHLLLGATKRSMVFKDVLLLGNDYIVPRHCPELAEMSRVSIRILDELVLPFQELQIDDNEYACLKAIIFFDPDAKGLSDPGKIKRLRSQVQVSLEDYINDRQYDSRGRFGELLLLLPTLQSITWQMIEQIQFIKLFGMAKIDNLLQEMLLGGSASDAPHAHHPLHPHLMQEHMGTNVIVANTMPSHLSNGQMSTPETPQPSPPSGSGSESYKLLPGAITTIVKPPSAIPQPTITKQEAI
Test: Gel mobility shift assay: His-HNF-4α binding to C3P apo CIII promoter oligonucleotide
Assay type: biochemical
Parameters: The full length HNF-4α1 cDNA cloned into 6His-pET11d vector was expressed in E.coli BL21 (DE3)plysS; 6His; made in house; host or cells: E. coli BL21 (DE3)plysS
Details: for effect on His-HNF-4α binding to C3P oligonucleotide: gel mobility shift, 10 μM acyl-CoA (FIG. 2)
Protocol: a. His-HNF-4I (14 ng) binding to C3P in the absence (lane 1) or presence of 10 μM each of myristoyl(14:0)-CoA (lane 2) or palmitoyl(16:0)-CoA (lane 3).
b. His-HNF-4I (20 ng) binding to C3P in the absence (lane 1) or presence of 10 μM each of stearoyl(18:0)-CoA (lane 2) or linolenoyl(18:3, w-3)-CoA (lane 3).
c. Activation of His-HNF-4I (14 ng) binding to C3P by increasing concentrations of myristoyl(14:0)-CoA. The gel section containing radiolabeled C3P bound to His-HNF-4I dimer is shown.
His-HNF-4α and acyl-CoA (as indicated) were preincubated for 30 min at 22° C. in 11 mM Hepes (pH 7.9) containing 50 mM KCl, 1 mM dithiothreitol. 2.5 mM MgCl2, 10% glycerol, 1 μg of poly(dI-dC) in a final volume of 20 μl. ^32P-labeled oligonucleotide (0.1 ng) consisting of the human C3P apo CIII promoter sequence,(−87/−66)^6 was then added, and incubation was continued for an additional 15 min. Protein-DNA complexes were resolved by 5% nondenaturing polyacrylamide gel in 0.6×TBE and quantitated by PhosphorImager analysis.
HNF-4α activity as a function of binding of long chain acyl-CoAs was evaluated by studying the binding of HNF-4α to its cognate C3P element of the apo CIII promoter sequence (−87/−66)^6 in the presence or absence of added acyl-CoAs of variable chain length, degree of saturation, and degree of substitution. Binding was verified by using a gel mobility shift assay. […] Activation was concentration dependent and maximal in the presence of myristoyl(14:0)-CoA added within a concentration range required for its binding to HNF-4α.

effect on His-HNF-4α binding to C3P oligonucleotide | direct effect on HNF-4α (summary) (summary statement of Example 4) | Structure (SMILES)
potent inhibition | antagonistic effect | CCCCCCCCCCCCCCCCCC(=O)SCCNC(=O)CCNC(=O)[C@H](O)C(C)(C)COP(=O)(O)OP(=O)(O)OC[C@H]1O[C@@H](n2cnc3c(N)ncnc32)[C@H](O)[C@@H]1OP(=O)(O)O [Stearoyl(18:0)-CoA]
Activation; also recorded: maximal |  | CCCCCCCCCCCCCC(=O)SCCNC(=O)CCNC(=O)[C@H](O)C(C)(C)COP(=O)(O)OP(=O)(O)OC[C@H]1O[C@@H](n2cnc3c(N)ncnc32)[C@H](O)[C@@H]1OP(=O)(O)O [myristoyl(14:0)-CoA, reference compound]

From patent US20040171688A1, “Carboxylic acids and derivatives thereof and pharmaceutical compositions containing them” (priority 1997, published 2004)
